Test results from patent publication US20250230153A1, “2,3-DIHYDROBENZO[B][1,4]DIOXIN-6-YL CONTAINING COMPOUNDS USEFUL AS IMMUNOMODULATORS” (BRISTOL-MYERS SQUIBB COMPANY, priority 2021, published 2025).

Target: PD-1/PD-L1 (Homo sapiens (Human), UniProt Q9NZQ7)
Assay: PD-1/PD-L1 Homogenous Time-Resolved Fluorescence (HTRF) binding assay
Conditions: PD-1-Ig (20 nM final)/PD-L1-His (10 nM final) binding assay
Description: The ability of the compounds of the invention to bind to PD-L1 was investigated using a PD-1/PD-L1 Homogenous Time-Resolved Fluorescence (HTRF) binding assay.
The interaction of PD-1 and PD-L1 can be assessed using soluble, purified preparations of the extracellular domains of the two proteins. The PD-1 and PD-L1 protein extracellular domains were expressed as fusion proteins with detection tags, for PD-1, the tag was the Fc portion of Immunoglobulin (PD-1-Ig) and for PD-L1 it was the 6 histidine motif (PD-L1-His). All binding studies were performed in an HTRF assay buffer consisting of dPBS supplemented with 0.1% […] bovine serum albumin and 0.05% (v/v) Tween-20. For the h/PD-L1-His binding assay, inhibitors were pre-incubated with PD-L1-His (10 nM final) for 15m in 4 μl of assay buffer, followed by addition of PD-1-Ig (20 nM final) in 1 μl of assay buffer and further incubation for 15 m. HTRF detection was achieved using europium crypate-labeled anti-Ig (1 nM final) and allophycocyanin (APC) labeled anti-His (20 nM final). Antibodies were diluted in HTRF detection buffer and 5 μl was dispensed on top of the binding reaction. The reaction mixture was allowed to equilibrate for 30 minutes and the resulting signal (665 nm/620 nm ratio) was obtained using an EnVision fluorometer. Additional binding assays were established between the human proteins PD-1-Ig/PD-L2-His (20 & 5 nM, respectively) and CD80-His/PD-L1-Ig (100 & 10 nM, respectively).
Recombinant Proteins: Human PD-1 (25-167) with a C-terminal human Fc domain of immunoglobulin G (Ig) epitope tag [hPD-1 (25-167)-3S-IG] and human PD-L1 (18-239) with a C-terminal His epitope tag [hPD-L1(18-239)-TVMV-His] were expressed in HEK293T cells and purified sequentially by ProteinA affinity chromatography and size exclusion chromatography. Human PD-L2-His and CD80-His was obtained through commercial sources.
Homogenous Time-Resolved Fluorescence (HTRF) Assays of Binding of Soluble PD-1 to Soluble PD-L1. Soluble PD-1 and soluble PD-L1 refers to proteins with carboxyl-end truncations that remove the transmembrane-spanning regions and are fused to heterologous sequences, specifically the Fc portion of the human immunoglobuling G sequence (Ig) or the hexahistidine epitope tag (His). All binding studies were performed in an HTRF assay buffer consisting of dPBS supplemented with 0.1% (w/v) bovine serum albumin and 0.05% (v/v) Tween-20. For the PD-1-Ig/PD-L1-His binding assay, inhibitors were pre-incubated with PD-L1-His (10 nM final) for 15m in 4 μl of assay buffer, followed by addition of PD-1-Ig (20 nM final) in 1 μl of assay buffer and further incubation for 15 m. PD-L1 fusion proteins from either human, cynomologous macaques, mouse, or other species were used. HTRF detection was achieved using europium crypate-labeled anti-Ig monoclonal antibody (1 nM final) and allophycocyanin (APC) labeled anti-His monoclonal antibody (20 nM final). Antibodies were diluted in HTRF detection buffer and 5 μl was dispensed on top of binding reaction. The reaction was allowed to equilibrate for 30 minutes and signal (665 nm/620 nm ratio) was obtained using an EnVision fluorometer. Additional binding assays were established between PD-1-Ig/PD-L2-His (20 and 5 nM, respectively), CD80-His/PD-L1-Ig (100 and 10 nM, respectively) and CD80-His/CTLA4-Ig (10 and 5 nM, respectively).
Recombinant Proteins. Carboxyl-truncated human PD-1 (amino acids 25-167) with a C-terminal human Ig epitope tag [hPD-1 (25-167)-3S-IG] and human PD-L1 (amino acids 18-239) with a C-terminal His epitope tag [hPD-L1(19-239)-tobacco vein mottling virus protease cleavage site (TVMV)-His] were expressed in HEK293T cells and purified sequentially by recombinant Protein A affinity chromatography and size exclusion chromatography. Human PD-L2-His (Sino Biologicals), CD80-His (Sino Biologicals), CTLA4-Ig (RnD Systems) were all obtained through commercial sources.

Sequence of PD-1/PD-L1 (Q9NZQ7 18-239): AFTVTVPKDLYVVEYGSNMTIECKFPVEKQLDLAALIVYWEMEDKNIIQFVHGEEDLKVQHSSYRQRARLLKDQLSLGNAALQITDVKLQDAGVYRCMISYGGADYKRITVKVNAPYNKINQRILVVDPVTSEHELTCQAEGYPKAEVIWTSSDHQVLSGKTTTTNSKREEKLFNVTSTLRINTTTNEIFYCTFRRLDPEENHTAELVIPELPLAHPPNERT

| SMILES | IC50 |
| --- | --- |
| COC(=O)C1(O)CCN(CCOc2cc(OCc3cccc(-c4ccc5c(c4)OCCO5)c3C)c(Cl)cc2CN[C@](C)(CO)C(=O)O)CC1 [Example 1052, (R)-2-((5-Chloro-4-((3-(2,3-dihydrobenzo[b][1,4]dioxin-6-yl)-2-methylbenzyl)oxy)-2-(2-(4-hydroxy-4-(methoxycarbonyl)piperidin-1-yl)ethoxy)benzyl)amino)-3-hydroxy-2-methylpropanoic acid] | 1.3 nM |
| Cc1c(COc2cc(OCCCC(F)(F)F)c(CNC(C)(CO)CO)cc2Cl)cccc1-c1ccc2c(c1)OCCO2 [Example 1030, 2-((5-Chloro-4-((3-(2,3-dihydrobenzo[b][1,4]dioxin-6-yl)-2-methylbenzyl)oxy)-2-(4,4,4-trifluorobutoxy)benzyl)amino)-2-methylpropane-1,3-diol] | 6.5 nM |
| Cc1c(COc2cc(OCC3CCOCC3)c(CN3CCCC[C@H]3C(=O)O)cc2Cl)cccc1-c1ccc2c(c1)OCCO2 [Example 1046, (S)-1-(5-Chloro-4-((3-(2,3-dihydrobenzo[b][1,4]dioxin-6-yl)-2-methylbenzyl)oxy)-2-((tetrahydro-2H-pyran-4-yl)methoxy)benzyl)piperidine-2-carboxylic acid] | 7 nM |
| Cc1c(COc2cc(OCC3CCCN(C)C3)c(CN[C@@](C)(CO)C(=O)O)cc2Cl)cccc1-c1ccc2c(c1)OCCO2 (stereo partly drawn) [Example 2003, (2S)-2-((5-chloro-4-((3-(2,3-dihydrobenzo[b][1,4]dioxin-6-yl)-2-methylbenzyl)oxy)-2-((1-methylpiperidin-3-yl)methoxy)benzyl)amino)-3-hydroxy-2-methylpropanoic acid] | 6.5 nM |
| Cc1c(COc2cc(OCC3CCC3)c(CN3CCCC[C@H]3C(=O)O)cc2Cl)cccc1-c1ccc2c(c1)OCCO2 [Example 1050, (S)-1-(5-Chloro-2-(cyclobutylmethoxy)-4-((3-(2,3-dihydrobenzo[b][1,4]dioxin-6-yl)-2-methylbenzyl)oxy)benzyl)piperidine-2-carboxylic acid] | 59.8 nM |
| Cc1c(COc2cc(OCCCC(F)(F)F)c(CN[C@](C)(CO)C(=O)O)cc2Cl)cccc1-c1ccc2c(c1)OCCO2 [Example 1029, (R)-2-((5-Chloro-4-((3-(2,3-dihydrobenzo[b][1,4]dioxin-6-yl)-2-methylbenzyl)oxy)-2-(4,4,4-trifluorobutoxy)benzyl)amino)-3-hydroxy-2-methylpropanoic acid] | 1.2 nM |

More lines, now with the values ahead:

| IC50 | SMILES |
| --- | --- |
| 2.3 nM | Cc1c(COc2cc(OCCN3CCOCC3)c(CNC(C)(CO)CO)cc2Cl)cccc1-c1ccc2c(c1)OCCO2 [Example 1039, 2-((5-Chloro-4-((3-(2,3-dihydrobenzo[b][1,4]dioxin-6-yl)-2-methylbenzyl)oxy)-2-(2-morpholinoethoxy)benzyl)amino)-2-methylpropane-1,3-diol] |
| 4.1 nM | Cc1c(COc2cc(OCc3cncc(S(N)(=O)=O)c3)c(CN[C@@](C)(CO)C(=O)O)cc2Cl)cccc1-c1ccc2c(c1)OCCO2 [Example 1019, (S)-2-((5-Chloro-4-((3-(2,3-dihydrobenzo[b][1,4]dioxin-6-yl)-2-methylbenzyl)oxy)-2-((5-sulfamoylpyridin-3-yl)methoxy)benzyl)amino)-3-hydroxy-2-methylpropanoic acid] |
| 1.9 nM | Cc1c(COc2cc(OCC3CCCN(C)C3)c(CN[C@@H](CO)C(=O)O)cc2Cl)cccc1-c1ccc2c(c1)OCCO2 (single isomer, unassigned) [Example 2005] |
| 21.8 nM | Cc1c(COc2cc(OCCN3CCCC(O)(C(F)(F)F)C3)c(CN3CCCC[C@H]3C(=O)O)cc2Cl)cccc1-c1ccc2c(c1)OCCO2 (stereo partly drawn) [Example 1058, (2S)-1-(5-Chloro-4-((3-(2,3-dihydrobenzo[b][1,4]dioxin-6-yl)-2-methylbenzyl)oxy)-2-(2-(3-hydroxy-3-(trifluoromethyl)piperidin-1-yl)ethoxy)benzyl)piperidine-2-carboxylic acid] |
